Reference: PubChem BioAssay AID1963866 (Molecular Pharmacology Branch, DTP, NCI, 2024)

Test system: PDC KRAS tumor spheroids with HUVEC/MSC, viability
Experiment: Anticancer human tumor 349418-098-R-PDC patient-derived lung adenocarcinoma cell line growth inhibition [KRAS2]
Details: for IC50: curve of first compound; for viability, T/C: stronger effect = lower value
Procedure, shortened: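 KRAS-mutant tumor cells were grown as spheroids with HUVEC endothelial cells and human MSCs as stroma. Targeted agents were tested alone and with KRAS pathway inhibitors. Doses started at or near clinical Cmax, or 10 microM, descending half-log.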

[1] = second compound 0.1 µM, first compound 0.0316 µM
[2] = second compound 0.1 µM, first compound 0.1 µM
[3] = second compound 0.1 µM, first compound 0.316 µM
[4] = second compound 0.1 µM, first compound 1 µM
[5] = second compound 0.1 µM, first compound 3.16 µM
[6] = second compound 0.1 µM, first compound 10 µM
[7] = second compound 0.316 µM, first compound 0.0316 µM
[8] = second compound 0.316 µM, first compound 0.1 µM
[9] = second compound 0.316 µM, first compound 0.316 µM
[10] = second compound 0.316 µM, first compound 1 µM
[11] = second compound 0.316 µM, first compound 3.16 µM
[12] = second compound 0.316 µM, first compound 10 µM
[13] = second compound 1 µM, first compound 0.0316 µM
[14] = second compound 1 µM, first compound 0.1 µM
[15] = second compound 1 µM, first compound 0.316 µM
[16] = second compound 1 µM, first compound 1 µM
[17] = second compound 1 µM, first compound 3.16 µM
[18] = second compound 1 µM, first compound 10 µM
[19] = second compound 3.16 µM, first compound 0.0316 µM
[20] = second compound 3.16 µM, first compound 0.1 µM
[21] = second compound 3.16 µM, first compound 0.316 µM
[22] = second compound 3.16 µM, first compound 1 µM
[23] = second compound 3.16 µM, first compound 3.16 µM
[24] = second compound 3.16 µM, first compound 10 µM
[25] = second compound 10 µM, first compound 0.0316 µM
[26] = second compound 10 µM, first compound 0.1 µM
[27] = second compound 10 µM, first compound 0.316 µM
[28] = second compound 10 µM, first compound 1 µM
[29] = second compound 10 µM, first compound 3.16 µM
[30] = second compound 10 µM, first compound 10 µM
[31] = second compound 0.1 µM, first compound 0.01 µM
[32] = second compound 0.316 µM, first compound 0.01 µM
[33] = second compound 1 µM, first compound 0.01 µM
[34] = second compound 3.16 µM, first compound 0.01 µM
[35] = second compound 10 µM, first compound 0.01 µM
[36] = second compound 0.1 µM, first compound 0.00316 µM
[37] = second compound 0.316 µM, first compound 0.00316 µM
[38] = second compound 1 µM, first compound 0.00316 µM
[39] = second compound 3.16 µM, first compound 0.00316 µM
[40] = second compound 10 µM, first compound 0.00316 µM
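Note: spheroids exposed to compounds for seven days before readout.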

CC(C)NCC(C(=O)N1CCN(c2ncnc3c2C(C)CC3O)CC1)c1ccc(Cl)cc1 (stereo not given) + CC1OCC2(CCN(c3cnc(Sc4ccnc(N)c4Cl)c(N)n3)CC2)C1N
IC50 (second compound 0.1 µM): 270 nM | IC50 (second compound 0.316 µM): 271 nM | IC50 (second compound 1 µM): 472 nM | IC50 (second compound 3.16 µM): 358 nM | IC50 (second compound 10 µM): 401 nM | viability, T/C [1]: 98.9% | viability, T/C [2]: 78.6% | viability, T/C [3]: 42.5% | viability, T/C [4]: 25.8% | viability, T/C [5]: 13.9% | viability, T/C [6]: 7.23% | viability, T/C [7]: 100% | viability, T/C [8]: 77.7% | viability, T/C [9]: 43% | viability, T/C [10]: 25.9% | viability, T/C [11]: 14.5% | viability, T/C [12]: 6.51% | viability, T/C [13]: 98.2% | viability, T/C [14]: 85.1% | viability, T/C [15]: 61.7% | viability, T/C [16]: 28.7% | viability, T/C [17]: 17.4% | viability, T/C [18]: 7.82% | viability, T/C [19]: 92.8% | viability, T/C [20]: 80.4% | viability, T/C [21]: 51.8% | viability, T/C [22]: 26.4% | viability, T/C [23]: 19.8% | viability, T/C [24]: 7.52% | viability, T/C [25]: 87.1% | viability, T/C [26]: 83.6% | viability, T/C [27]: 51.5% | viability, T/C [28]: 31% | viability, T/C [29]: 15.3% | viability, T/C [30]: 7.92%

CC1COCCN1c1cc(-c2ccnn2C)c2ccnc(-c3ccn[nH]3)c2n1 (stereo not given) + CC1OCC2(CCN(c3cnc(Sc4ccnc(N)c4Cl)c(N)n3)CC2)C1N
IC50 (second compound 0.1 µM): 30.4 nM | IC50 (second compound 0.316 µM): 26.9 nM | IC50 (second compound 1 µM): 37.8 nM | IC50 (second compound 3.16 µM): 37.4 nM | IC50 (second compound 10 µM): 25.4 nM | viability, T/C [31]: 98.1% | viability, T/C [1]: 48.2% | viability, T/C [2]: 9.73% | viability, T/C [3]: 7% | viability, T/C [4]: 4.41% | viability, T/C [5]: 4.8% | viability, T/C [32]: 115% | viability, T/C [7]: 39.4% | viability, T/C [8]: 9.52% | viability, T/C [9]: 7.35% | viability, T/C [10]: 4.82% | viability, T/C [11]: 4.26% | viability, T/C [33]: 117% | viability, T/C [13]: 56.9% | viability, T/C [14]: 12.2% | viability, T/C [15]: 7.13% | viability, T/C [16]: 5.99% | viability, T/C [17]: 4.5% | viability, T/C [34]: 97.7% | viability, T/C [19]: 56.8% | viability, T/C [20]: 10.1% | viability, T/C [21]: 6.94% | viability, T/C [22]: 4.63% | viability, T/C [23]: 4.81% | viability, T/C [35]: 89.6% | viability, T/C [25]: 40.6% | viability, T/C [26]: 9.52% | viability, T/C [27]: 5.38% | viability, T/C [28]: 4.95% | viability, T/C [29]: 4.71%

CCN1CCN(Cc2ccc(Nc3ncc(F)c(-c4cc(F)c5nc(C)n(C(C)C)c5c4)n3)nc2)CC1 + CC1OCC2(CCN(c3cnc(Sc4ccnc(N)c4Cl)c(N)n3)CC2)C1N
IC50 (second compound 0.1 µM): 5.38 nM | IC50 (second compound 0.316 µM): 3.38 nM | IC50 (second compound 1 µM): 7.27 nM | IC50 (second compound 3.16 µM): 7.9 nM | IC50 (second compound 10 µM): 6.16 nM | viability, T/C [36]: 66.4% | viability, T/C [31]: 28.3% | viability, T/C [1]: 21.4% | viability, T/C [2]: 14.6% | viability, T/C [3]: 13.6% | viability, T/C [4]: 4.93% | viability, T/C [37]: 50.9% | viability, T/C [32]: 37.3% | viability, T/C [7]: 18.1% | viability, T/C [8]: 23.4% | viability, T/C [9]: 10.2% | viability, T/C [10]: 6.35% | viability, T/C [38]: 70.2% | viability, T/C [33]: 43.6% | viability, T/C [13]: 21.1% | viability, T/C [14]: 16.4% | viability, T/C [15]: 10.7% | viability, T/C [16]: 3.95% | viability, T/C [39]: 61.6% | viability, T/C [34]: 49.8% | viability, T/C [19]: 23.7% | viability, T/C [20]: 18.1% | viability, T/C [21]: 10.1% | viability, T/C [22]: 3.58% | viability, T/C [40]: 68.6% | viability, T/C [35]: 36.7% | viability, T/C [25]: 18.2% | viability, T/C [26]: 15.1% | viability, T/C [27]: 9.7% | viability, T/C [28]: 3.29%

CCNC(=O)CC1N=C(c2ccc(Cl)cc2)c2cc(OC)ccc2-n2c(C)nnc21 (stereo not given) + CC1OCC2(CCN(c3cnc(Sc4ccnc(N)c4Cl)c(N)n3)CC2)C1N
IC50 (second compound 0.1 µM): 112 nM | IC50 (second compound 0.316 µM): 133 nM | IC50 (second compound 1 µM): 148 nM | IC50 (second compound 3.16 µM): 183 nM | IC50 (second compound 10 µM): 196 nM | viability, T/C [1]: 106% | viability, T/C [2]: 50.3% | viability, T/C [3]: 28.4% | viability, T/C [4]: 11.3% | viability, T/C [5]: 3.22% | viability, T/C [6]: 1.09% | viability, T/C [7]: 103% | viability, T/C [8]: 58.8% | viability, T/C [9]: 23.6% | viability, T/C [10]: 10.1% | viability, T/C [11]: 2.91% | viability, T/C [12]: 1.3% | viability, T/C [13]: 136% | viability, T/C [14]: 60.9% | viability, T/C [15]: 28.8% | viability, T/C [16]: 8.35% | viability, T/C [17]: 2.56% | viability, T/C [18]: 1.67% | viability, T/C [19]: 103% | viability, T/C [20]: 73.9% | viability, T/C [21]: 27.6% | viability, T/C [22]: 10.3% | viability, T/C [23]: 2.56% | viability, T/C [24]: 1.16% | viability, T/C [25]: 109% | viability, T/C [26]: 80% | viability, T/C [27]: 28.3% | viability, T/C [28]: 7.82% | viability, T/C [29]: 2.1% | viability, T/C [30]: 0.96%

Cn1nccc1Nc1nccc(-c2cc3c(s2)C(C)(C)N(CCN2CCOCC2)C3=O)n1 + CC1OCC2(CCN(c3cnc(Sc4ccnc(N)c4Cl)c(N)n3)CC2)C1N
IC50 (second compound 0.1 µM): 54.2 nM | IC50 (second compound 0.316 µM): 44.6 nM | IC50 (second compound 1 µM): 32.5 nM | IC50 (second compound 3.16 µM): 36.4 nM | IC50 (second compound 10 µM): < 31.6 nM | viability, T/C [1]: 68.8% | viability, T/C [2]: 27% | viability, T/C [3]: 17.7% | viability, T/C [4]: 8.51% | viability, T/C [5]: 5.52% | viability, T/C [6]: 4.04% | viability, T/C [7]: 61.4% | viability, T/C [8]: 23.7% | viability, T/C [9]: 7.24% | viability, T/C [10]: 6.49% | viability, T/C [11]: 4.43% | viability, T/C [12]: 4.11% | viability, T/C [13]: 51.1% | viability, T/C [14]: 18.4% | viability, T/C [15]: 8.88% | viability, T/C [16]: 4.35% | viability, T/C [17]: 4.16% | viability, T/C [18]: 4.13% | viability, T/C [19]: 54.6% | viability, T/C [20]: 19.7% | viability, T/C [21]: 7.87% | viability, T/C [22]: 3.17% | viability, T/C [23]: 2.99% | viability, T/C [24]: 3.09% | viability, T/C [25]: 47.9% | viability, T/C [26]: 18.8% | viability, T/C [27]: 6.03% | viability, T/C [28]: 2.89% | viability, T/C [29]: 2.98% | viability, T/C [30]: 2.7%

Cn1ncnc1[C@H]1c2n[nH]c(=O)c3cc(F)cc(c23)N[C@@H]1c1ccc(F)cc1 + CC1OCC2(CCN(c3cnc(Sc4ccnc(N)c4Cl)c(N)n3)CC2)C1N
IC50 (second compound 0.1 µM): > 100 nM | IC50 (second compound 0.316 µM): > 100 nM | IC50 (second compound 1 µM): > 100 nM | IC50 (second compound 3.16 µM): > 100 nM | IC50 (second compound 10 µM): > 100 nM | viability, T/C (second compound 0.1 µM, first compound 0.000316 µM): 105% | viability, T/C (second compound 0.1 µM, first compound 0.001 µM): 102% | viability, T/C [36]: 95.9% | viability, T/C [31]: 95.7% | viability, T/C [1]: 88.6% | viability, T/C [2]: 85.8% | viability, T/C (second compound 0.316 µM, first compound 0.000316 µM): 93.5% | viability, T/C (second compound 0.316 µM, first compound 0.001 µM): 97.2% | viability, T/C [37]: 95.6% | viability, T/C [32]: 87.5% | viability, T/C [7]: 83.3% | viability, T/C [8]: 73.9% | viability, T/C (second compound 1 µM, first compound 0.000316 µM): 95.8% | viability, T/C (second compound 1 µM, first compound 0.001 µM): 93% | viability, T/C [38]: 92.2% | viability, T/C [33]: 83.8% | viability, T/C [13]: 82.6% | viability, T/C [14]: 76% | viability, T/C (second compound 3.16 µM, first compound 0.000316 µM): 90.3% | viability, T/C (second compound 3.16 µM, first compound 0.001 µM): 83.1% | viability, T/C [39]: 83.3% | viability, T/C [34]: 79.8% | viability, T/C [19]: 73.7% | viability, T/C [20]: 74.2% | viability, T/C (second compound 10 µM, first compound 0.000316 µM): 78.9% | viability, T/C (second compound 10 µM, first compound 0.001 µM): 74.4% | viability, T/C [40]: 76.7% | viability, T/C [35]: 66.7% | viability, T/C [25]: 62.8% | viability, T/C [26]: 61.9%
